The values below come from EP1227083A1, “3-AMINOPIPERIDINE DERIVATIVES AS INTEGRIN $g(a)v$g(b)3 ANTAGONISTS” (Meiji Seika Kaisha, Ltd., priority 1999, dated 2001).

“And” between values parts separate entries of the source, which are not always exact repeats. Identical values can stand only once. Like-named read-outs stand apart in the source and are kept apart here.

The target of series [1] is T1, Integrin αvβ3 (vitronectin receptor) (Homo sapiens, UniProt P05106+P06756).
T1 construct: a vitronectin receptor (protein content: 118 µg/ml) purified from the human placenta; from tissue; host or cells: human placenta
As to the kind of experiment: αvβ3 Binding assay (vitronectin-vitronectin receptor binding assay). As for the experimental part:
Pharmacological Test Example 1: αvβ3 Binding assay
Integrin αvβ3 antagonistic activity of compounds according to the present invention was measured in a vitronectin-vitronectin receptor binding assay system in accordance with the method of Kouns et al. (W. C. Kouns, D. Kirchhofer, P. Hadvary, A. Edenhofer, T. Weller, G. Pfenninger, H. R. Baumgartner, L. K. Jennings and B. Steiner, Blood, 80, 2539-2547 (1992)).
Specifically, a vitronectin receptor (protein content: 118 µg/ml) purified from the human placenta in accordance with the method of Pytela et al. (R. Pytela, M. D. Pierschbacher, S. Argraves, S. Suzuki, and E. Ruoslahti, Method in Enzymology, 144, 475-489 (1987)) was diluted 50 times with TBS (20 mM Tris-HCl, 150 mM NaCl, 1 mM CaCl2, 1 mM MgCl2, pH 7.4), and distributed and coated on wells (50 µl/well) of a plate (Maxisorp, Nunc, 96 well Immuno Plate). The plate was then allowed to stand at 4°C for one day, washed twice with TBS (200 µl/well), and then subjected to blocking with TBS (150 µl/well) containing 1% bovine serum albumin (SIGMA) at 4°C overnight. After washing twice with TBS (200 µl/well), 50 µl of vitronectin (CALBIOCHEM) adjusted to 0.2 µg/ml by the addition of TBS (TBS-Tween) containing 0.01% Tween-20 was mixed with 50 µl of each test compound adjusted to each concentration in wells, and a reaction was allowed to proceed at room temperature for 4 hr. After the completion of the reaction, the wells were washed three times with TBS-Tween. A solution prepared by diluting anti-vitronectin rabbit antiserum (CHEMICON) 500 times with TBS-Tween was added as a primary antibody in an amount of 50 µl/well, and a reaction was allowed to proceed at room temperature for 1.5 hr. After washing three times with 200 µl/well of TBS-Tween, a peroxidase (POD)-labeled anti-rabbit IgG antibody solution (CAPPEL) diluted 500 times with TBS-Tween was added as a secondary antibody in an amount of 50 µl/well, and a reaction was allowed to proceed at room temperature for 1.5 hr. After washing three times with TBS-Tween (200 µl/well), ABTS (2,2'-azino-bis(3-ethylbenzthiazoline-6-sulfonic acid), SIGMA) was adjusted to 1 mg/ml by the addition of a ten-fold diluted POD-buffer (ZYMED), and was added in an amount of 50 µl/well, and a reaction was allowed to proceed for 5 to 10 min. A 0.1 M citric acid buffer (pH 4.3) containing 0.05% NaN3 was added in an amount of 50 µl/well to stop the reaction, followed by the measurement of the absorbance at 415 nm with a microplate reader (MTP 32, Corona Electric) (reference: 675 nm). The total binding was defined as the absorbance after a reaction using 50 µl of TBS-Tween instead of the test compound, and the non-specific binding (100% inhibition) was defined as the absorbance after a reaction using 50 µl of TBS-Tween containing 2 x 10^-3 M RGDS. The inhibition was calculated by the following equation: Inhibition (%) = 100-((absorbance in the presence of test compound - non-specific binding))/((total binding - non-specific binding))× 100 [formula]
IC50 was determined from a primary regression line of the logarithm of each concentration of the test compound and the logarithm of (100 - inhibition)/inhibition.

Series [2] addresses GP IIb/IIIa (Homo sapiens, UniProt P05106+P08514). As to the kind of experiment: GP IIb/IIIa antagonistic activity (method of Pharmacological Test 2 in WO 94/21599). It is filed as binding. Conditions: read-out: IC50 (GP IIb/IIIa antagonistic activity). As for the experimental part:
GP IIb/IIIa antagonistic activity was measured for compounds according to the present invention. The measurement of the GP IIb/IIIa antagonistic activity was carried out according to the method described in Pharmacological Test 2 in WO 94/21599.

The subject of series [3] is human platelet aggregation. As to the kind of experiment: Human platelet aggregation inhibitory activity (method of Pharmacological Test 1 in WO 94/21599). It is filed as cell-based. As for the experimental part: Human platelet aggregation inhibitory activity was measured for compounds according to the present invention. The measurement of the human platelet aggregation inhibitory activity was carried out according to the method described in Pharmacological Test 1 in WO 94/21599.

In series [4] the test system is human vascular smooth muscle cells. Description: Inhibitory activity against adhesion of human vascular smooth muscle cells to vitronectin. It is filed as cell-based. Conditions: immobilized human vitronectin. As for the experimental part:
Pharmacological Test Example 3: Inhibitory activity against adhesion of human vascular smooth muscle cells to vitronectin
The adhesion of human vascular smooth muscle cells to immobilized human vitronectin was measured in accordance with the method of Liaw et al. (Liaw L, Almeida M, Hart CE, Schwartz SM, and Giachelli CM, Circulation Research, 74 (2), 214-224 (1994)).
A Dulbecco's phosphate buffer (Dulbecco's PBS(-), Nissui Pharmaceutical Co., Ltd.) solution of human plasma-derived vitronectin (CALBIOCHEM) adjusted to a concentration of 4 µg/ml was first added to wells (50 µl/well) of a microplate (Maxisorp, Nunc), and a reaction for immobilization was allowed to proceed at 4°C overnight. […]
Next, 50 µl of a Dulbecco's modified Eagle's basal medium containing 0.1% of bovine serum albumin with a medicament added thereto was added to the wells of the human vitronectin-coated assay microplate, followed by pre-cultivation under 5% carbon dioxide at 37°C for 10 min. […] The absorbance of the microplate thus obtained was measured at 595 nm. […] The inhibition was calculated by the following equation. IC50 was determined from a primary regression line of the logarithm of each concentration of the test compound and the logarithm of (100 - inhibition)/inhibition. […]

Series [5] is described as follows: Oral absorption in rats. The series is classed as in vivo. Conditions: data not shown.
The mark [6] stands for this setting: vitronectin binding to vitronectin receptor purified from the human placenta; read-out: IC50 (integrin αvβ3 antagonistic activity).
The mark [7] stands for this setting: read-out: IC50 (integrin αvβ3 antagonistic activity); vitronectin binding to vitronectin receptor purified from the human placenta.

T1 sequence (P06756 31-889 limits assumed): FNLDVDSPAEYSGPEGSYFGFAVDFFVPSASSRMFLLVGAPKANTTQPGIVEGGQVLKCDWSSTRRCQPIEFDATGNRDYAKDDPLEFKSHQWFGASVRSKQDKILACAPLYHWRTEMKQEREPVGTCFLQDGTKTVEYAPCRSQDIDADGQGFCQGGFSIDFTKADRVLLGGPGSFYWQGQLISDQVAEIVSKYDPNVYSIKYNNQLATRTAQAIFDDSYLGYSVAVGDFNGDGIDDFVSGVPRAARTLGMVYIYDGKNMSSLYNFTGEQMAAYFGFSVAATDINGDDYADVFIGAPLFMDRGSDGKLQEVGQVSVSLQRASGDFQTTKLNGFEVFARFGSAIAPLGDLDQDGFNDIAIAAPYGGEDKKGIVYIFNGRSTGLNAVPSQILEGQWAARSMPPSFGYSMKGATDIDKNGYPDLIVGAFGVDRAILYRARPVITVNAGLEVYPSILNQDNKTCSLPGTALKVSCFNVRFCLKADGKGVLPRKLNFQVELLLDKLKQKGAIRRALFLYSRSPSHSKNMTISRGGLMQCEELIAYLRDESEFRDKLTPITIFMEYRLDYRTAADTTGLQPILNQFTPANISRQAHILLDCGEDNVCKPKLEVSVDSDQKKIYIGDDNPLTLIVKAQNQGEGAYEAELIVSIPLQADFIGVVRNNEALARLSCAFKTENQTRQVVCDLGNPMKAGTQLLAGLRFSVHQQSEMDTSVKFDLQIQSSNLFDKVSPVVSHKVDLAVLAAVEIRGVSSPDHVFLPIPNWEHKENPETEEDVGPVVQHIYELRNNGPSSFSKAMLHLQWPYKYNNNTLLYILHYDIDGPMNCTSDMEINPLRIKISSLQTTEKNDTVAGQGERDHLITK
T1 sequence (P06756 891-1048 partner limits assumed): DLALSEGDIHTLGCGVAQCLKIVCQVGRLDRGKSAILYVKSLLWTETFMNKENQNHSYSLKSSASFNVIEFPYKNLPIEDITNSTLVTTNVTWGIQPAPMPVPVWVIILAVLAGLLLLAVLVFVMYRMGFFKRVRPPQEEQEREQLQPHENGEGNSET
T1 sequence (P05106 27-788): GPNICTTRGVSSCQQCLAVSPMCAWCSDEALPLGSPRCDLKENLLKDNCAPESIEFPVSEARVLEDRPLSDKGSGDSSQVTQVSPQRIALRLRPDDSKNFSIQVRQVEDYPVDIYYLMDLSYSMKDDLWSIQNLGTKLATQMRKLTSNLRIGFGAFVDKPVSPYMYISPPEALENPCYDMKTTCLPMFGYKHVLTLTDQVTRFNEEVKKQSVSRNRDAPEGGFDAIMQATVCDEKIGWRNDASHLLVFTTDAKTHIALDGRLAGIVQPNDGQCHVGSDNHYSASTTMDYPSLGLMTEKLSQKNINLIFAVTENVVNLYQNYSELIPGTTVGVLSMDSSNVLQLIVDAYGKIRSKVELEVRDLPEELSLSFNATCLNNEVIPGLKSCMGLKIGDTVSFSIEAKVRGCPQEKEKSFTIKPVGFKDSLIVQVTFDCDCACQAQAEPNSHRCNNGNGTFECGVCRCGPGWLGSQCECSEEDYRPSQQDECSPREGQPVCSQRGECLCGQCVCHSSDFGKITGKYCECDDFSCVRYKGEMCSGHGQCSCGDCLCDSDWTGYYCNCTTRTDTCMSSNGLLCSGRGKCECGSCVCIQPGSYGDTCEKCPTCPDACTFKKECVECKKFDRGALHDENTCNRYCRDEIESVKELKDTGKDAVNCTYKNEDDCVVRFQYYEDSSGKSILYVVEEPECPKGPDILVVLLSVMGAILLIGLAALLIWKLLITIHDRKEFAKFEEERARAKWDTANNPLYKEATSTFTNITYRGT
GP IIb/IIIa, sequence (P08514 32-887 limits assumed): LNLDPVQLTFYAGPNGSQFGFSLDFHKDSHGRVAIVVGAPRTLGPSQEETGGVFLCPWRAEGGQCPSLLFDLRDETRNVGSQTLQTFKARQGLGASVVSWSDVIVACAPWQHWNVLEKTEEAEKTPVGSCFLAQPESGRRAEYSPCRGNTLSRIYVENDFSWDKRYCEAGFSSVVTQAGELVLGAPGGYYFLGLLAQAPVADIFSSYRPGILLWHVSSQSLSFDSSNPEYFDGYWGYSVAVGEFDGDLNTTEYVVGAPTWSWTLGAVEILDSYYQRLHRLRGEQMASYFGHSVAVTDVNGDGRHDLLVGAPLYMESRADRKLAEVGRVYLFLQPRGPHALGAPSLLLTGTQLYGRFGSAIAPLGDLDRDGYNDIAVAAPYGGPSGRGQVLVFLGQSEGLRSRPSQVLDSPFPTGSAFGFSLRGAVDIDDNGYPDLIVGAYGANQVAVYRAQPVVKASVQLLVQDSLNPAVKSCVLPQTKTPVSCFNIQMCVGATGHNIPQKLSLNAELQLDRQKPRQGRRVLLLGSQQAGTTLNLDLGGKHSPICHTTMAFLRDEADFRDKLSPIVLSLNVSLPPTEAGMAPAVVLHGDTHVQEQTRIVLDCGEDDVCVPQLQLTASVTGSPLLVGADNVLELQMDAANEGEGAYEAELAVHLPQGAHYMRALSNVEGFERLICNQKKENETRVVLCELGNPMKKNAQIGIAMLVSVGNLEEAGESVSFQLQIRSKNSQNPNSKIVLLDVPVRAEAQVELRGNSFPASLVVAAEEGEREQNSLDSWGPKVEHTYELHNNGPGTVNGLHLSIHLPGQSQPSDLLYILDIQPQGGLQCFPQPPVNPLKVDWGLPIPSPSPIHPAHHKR
GP IIb/IIIa, sequence (P08514 891-1039 partner limits assumed): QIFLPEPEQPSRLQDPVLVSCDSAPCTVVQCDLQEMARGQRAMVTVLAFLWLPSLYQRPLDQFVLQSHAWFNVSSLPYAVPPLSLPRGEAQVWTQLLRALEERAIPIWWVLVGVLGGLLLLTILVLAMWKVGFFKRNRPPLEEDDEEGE
GP IIb/IIIa, sequence (P05106 27-788): as the sequence (P05106 27-788) above

Take `O=C(NC[C@H](NS(=O)(=O)c1cccs1)C(=O)O)c1ccc(N2CCC[C@H](N=C3NCCCN3)C2)cc1` [Example 44, 3-[4-{(3S)-(1,4,5,6-Tetrahydropyrimidin-2-ylamino)piperidin-1-yl}benzoylamino]-(2S)-{(thiophene-2-sulfonyl)amino}propionic acid]: the results for the IC50 in series [1] (setting [6]) and in series [2] were no more than 1 nM and no more than 1.1 nM, respectively.
Regarding `O=C(NC[C@H](NS(=O)(=O)c1ccccc1)C(=O)O)c1ccc(N2CCC[C@H](NC3=NCCCN3)C2)c(F)c1F` [Example 19, (2S)-Benzenesulfonylamino-3-[2,3-difluoro-4-{(3S)-(1,4,5,6-tetrahydropyrimidin-2-ylamino)piperidin-1-yl}benzoylamino]propionic acid], the IC50 in series [1] (setting [7]) is no more than 1 nM; in series [2] it was no more than 1.1 nM.
As to `O=C(NC[C@H](NS(=O)(=O)c1ccccc1)C(=O)O)c1ccc(N2CCC[C@H](NC3=NCCCN3)C2)c(Cl)c1` [Example 22, (2S)-Benzenesulfonylamino-3-[3-chloro-4-{(3S)-(1,4,5,6-tetrahydropyrimidin-2-ylamino)piperidin-1-yl}benzoylamino]propionic acid], in series [2], the IC50 is no more than 1.1 nM.
On the same count and under the same terms, as for `O=C(NC[C@H](NS(=O)(=O)c1ccccc1)C(=O)O)c1ccc(N2CCC[C@@H](NC3=NCCCN3)C2)c(F)c1` [Example 9, (2S)-Benzenesulfonylamino-3-[3-fluoro-4-{(3R)-(1,4,5,6-tetrahydropyrimidin-2-ylamino)piperidin1-yl}benzoylamino]propionic acid], the figure is no more than 1.1 nM.
Consider `O=C(NC[C@H](NS(=O)(=O)c1ccccc1)C(=O)O)c1ccc(N2CCC[C@H](Nc3ccccn3)C2)cc1` [Example 27, (2S) -Benzenesulfonylamino-3-[4-{(3S)-(pyridin-2-ylamino)piperidin-1-yl}-benzoylamino]propionic acid], for which the IC50 in series [1] (setting [7]) is no more than 1 nM; in series [2], no more than 1.1 nM.
In the case of `O=C(NC[C@H](NS(=O)(=O)c1ccccc1)C(=O)O)c1ccc(N2CCC[C@H](NC3=NCCCN3)C2)c(F)c1` [Example 6, (2S)-Benzenesulfonylamino-3-[3-fluoro-4-{(3S)-(1,4,5,6-tetrahydropyrimidin-2-ylamino)piperidin-1-yl}benzoylamino]propionic acid], the IC50 in series [2] was ≤ 1.1 nM and 1.1 nM.
In the case of `O=C(NC[C@H](NS(=O)(=O)c1ccccc1)C(=O)O)c1ccc(N2CCCC(NC3=NCCCN3)C2)cc1` (stereo partly drawn) [Example 3, (2S)-Benzenesulfonylamino-3-[4-{3-(1,4,5,6-tetrahydropyrimidin-2-ylamino)piperidin-1-yl}benzoylamino]propionic acid], the IC50 in series [1] (setting [7]) is no more than 1 nM; in series [2], no more than 1.1 nM.
`O=C(NC[C@H](NS(=O)(=O)c1ccccc1)C(=O)O)c1ccc(N2CCC[C@H](N=C3NCCCN3)C2)cc1` [Example 25, (2S)-Benzenesulfonylamino-3-[4-{(3S)-(1,4,5,6-tetrahydropyrimidin-2-ylamino)piperidin-1-yl}benzoylamino]propionic acid]: the IC50 in series [1] (setting [6]) was no more than 1 nM; in series [2], no more than 1.1 nM; in series [3], 56 nM.
As for `O=C(NC[C@H](NS(=O)(=O)c1ccccc1)C(=O)O)c1ccc(N2CCCC(Nc3ncccn3)C2)cc1` (stereo partly drawn) [Example 2, (2S)-Benzenesulfonylamino-3-[4-{3-(pyrimidin-2-ylamino)piperidin-1-yl}benzoylamino]propionic acid], the IC50 in series [2] is no more than 1.1 nM.
Regarding `O=C(NC[C@H](NS(=O)(=O)c1ccccc1)C(=O)O)c1ccc(N2CCC[C@H](N=C3NCCCN3)C2)cc1F` [Example 30, (2S)-Benzenesulfonylamino-3-[2-fluoro-4-{(3S)-(1,4,5,6-tetrahydropyrimidin-2-ylamino)piperidin-1-yl}benzoylamino]propionic acid], the IC50 is no more than 1 nM in series [1] (setting [6]), no more than 1.1 nM in series [2] and 13 nM in series [4].
Take `O=C(NC[C@H](NS(=O)(=O)c1ccccc1)C(=O)O)c1ccc(N2CCC[C@H](Nc3ncccn3)C2)c(F)c1` [Example 5, (2S)-Benzenesulfonylamino-3-[3-fluoro-4-{(3S)-(pyrimidin-2-ylamino)piperidin-1-yl}benzoylamino]-propionic acid]: in series [5], the oral absorption result is on record as “had oral absorption”.
